Read-outs that look alike come from different tables or passages of the source.
How the values were obtained:
Format in all cases: in vivo
[1] = system: Tetranychus urticae (spider mites - ova); test: Mortality test on Tetranychus urticae ova (TUe), contact; conditions: topical, 144 h, read-out: TUe grading of mortality; for mortality at 100 ppm: rate 100 ppm
Protocol: (§1) The activity of the Product was determined using a variety of insect pests. The Product was used in the form of liquid preparations containing from 100 to 500 parts per million (ppm) by weight of the Product. The preparations were made by dissolving the Product in acetone and diluting the solutions with water containing 0.1% by weight of a wetting agent sold under the trade name "SYNPERONIC" NX until the liquid preparations contained the required concentration of the Product. "SYNPERONIC" is a Registered Trade Mark.
(§2) The test procedure adopted with regard to each pest was basically the same and comprised supporting a number of the pests on a medium which was usually a host plant or a foodstuff on which the pests feed, and treating either or both the pests and the medium with the preparations. The mortality of the pests was then assessed at periods usually varying from one to seven days after the treatment.
(§3) The results of the tests are given in Table III for each of the Products, at the rate in parts per million given in the second column, as a grading of mortality designated as A, B or C wherein A indicates 80-100% mortality or knockdown, B indicates 50-79% mortality or knockdown and C indicates less than 50% mortality or knockdown.
(§4) In Table III the pest organism used is designated by a letter code and the pests species, the support medium or food, and the type and duration of test is given in Table II.

[2] = system: Tetranychus urticae (spider mites - adults); test: Mortality test on Tetranychus urticae adults (TUa), contact; conditions: topical, 72 h, read-out: TUa grading of mortality; for mortality at 100 ppm: rate 100 ppm
Protocol: as §1, §2, §3, §4
(spider mites - adults)

[3] = system: Spodoptera exigua (lesser army worm - larvae); test: Mortality test on Spodoptera exigua (SP), residual; conditions: 72 h, read-out: SP grading of mortality
Protocol: as §1, §2, §3, §4
(lesser army worm - larvae)

[4] = system: Musca domestica (houseflies - adults); test: Mortality test on Musca domestica (MD), contact; conditions: topical, 24 h, read-out: MD grading of mortality; for mortality at 100 ppm: rate 100 ppm
Protocol: as §1, §2, §3, §4

[5] = system: Heliothis virescens (tobacco budworm - larvae); test: Mortality test on Heliothis virescens (HV), residual; conditions: 72 h, read-out: HV grading of mortality; for mortality at 100 ppm: rate 100 ppm
Protocol: as §1, §2, §3, §4
(tobacco budworm - larvae)

Myzus persicae (aphids) = test: Mortality test on Myzus persicae (MP), contact; conditions: topical, 72 h, read-out: MP grading of mortality; for mortality at 100 ppm: rate 100 ppm
Protocol: as §1, §2, §3, §4

[6] = system: Diabrotica balteata (rootworm larvae); test: Mortality test on Diabrotica balteata (DB), residual; conditions: 72 h, read-out: DB grading of mortality
Protocol: as §1, §2, §3, §4

[7] = system: Blattella germanica (cockroach nymphs); test: Mortality test on Blattella germanica (BG), residual; conditions: 72 h, read-out: BG grading of mortality
Protocol: as §1, §2, §3, §4

[8] = system: Nephotettix cincticeps (green leaf hopper - nymphs); test: Mortality test on Nephotettix cincticeps (NC), contact; conditions: topical, 72 h, rice plant, 3 days, read-out: NC grading of mortality; for mortality at 100 ppm: rate 100 ppm; for mortality at 500 ppm: rate 500 ppm
Protocol: as §1, §2, §3, §4
NC Nephotettix cincticeps

[9] = French bean leaf, contact, 6 days
[10] = French bean leaf, contact, 3 days
[11] = cotton wool/sugar, contact, 1 day
[12] = Chinese cabbage leaf, contact, 3 days
[13] = rate 500 ppm, French bean leaf, contact, 6 days
[14] = rate 500 ppm, cotton wool/sugar, contact, 1 day
[15] = rate 500 ppm, cotton leaf, residual, 3 days
[16] = rate 500 ppm, Chinese cabbage leaf, contact, 3 days
[17] = rate 500 ppm, French bean leaf, contact, 3 days
[18] = rate 500 ppm, filter paper/maize seed, residual, 3 days
[19] = rate 500 ppm, plastic pot, residual, 3 days

SMILES	mortality at 500 ppm [1, 13] [%]	mortality at 500 ppm ([3]; in Gossypium hirsutum) [%]	mortality at 500 ppm [4, 14] [%]	mortality at 500 ppm [5, 15] [%]	mortality at 500 ppm (Myzus persicae (aphids); [16]) [%]	mortality at 500 ppm ([6]; in Zea mays) [%]	mortality at 500 ppm [7] [%]	mortality at 500 ppm [2, 17] [%]	other results
CC1(C)C(C=C(F)F)C1C(=O)OCc1ccc(F)c(Cc2ccccc2)c1 (racemic) [III]	–	–	–	–	–	–	–	–	mortality at 100 ppm [1, 9]: < 50%; mortality at 100 ppm [2, 10]: 50 to 79%; mortality at 100 ppm ([3]; in Gossypium hirsutum): 80 to 100%; mortality at 100 ppm [4, 11]: 80 to 100%; mortality at 100 ppm ([5]; cotton leaf, residual, 3 days): 80 to 100%; mortality at 100 ppm (Myzus persicae (aphids); [12]): 80 to 100%; mortality at 100 ppm ([6]; in Zea mays): 80 to 100%; mortality at 100 ppm [7]: < 50%
CC1(C)C(C=C(Br)Br)C1C(=O)OCc1ccc(F)c(Cc2ccccc2)c1 (racemic) [X]	< 50	80 to 100	80 to 100	80 to 100	80 to 100	80 to 100	80 to 100	–	–
CC1(C)[C@H](C(=O)OC(C#N)c2ccc(F)c(Cc3ccccc3)c2)[C@@H]1/C=C(\Cl)C(F)(F)F (relative stereo) [II]	80 to 100	80 to 100	80 to 100	80 to 100	80 to 100	80 to 100	80 to 100	80 to 100	–
CC1(C)[C@H](C=C(Cl)Cl)[C@H]1C(=O)OCc1ccc(F)c(Cc2ccccc2)c1 (relative stereo) [IV]	–	–	–	–	–	–	–	–	mortality at 100 ppm [8]: 80 to 100%; mortality at 100 ppm [1, 9]: < 50%; mortality at 100 ppm [2, 10]: < 50%; mortality at 100 ppm ([3]; in Gossypium hirsutum): 80 to 100%; mortality at 100 ppm [4, 11]: 80 to 100%; mortality at 100 ppm ([5]; cotton leaf, residual, 3 days): 80 to 100%; mortality at 100 ppm (Myzus persicae (aphids); [12]): 80 to 100%; mortality at 100 ppm ([6]; in Zea mays): 80 to 100%; mortality at 100 ppm [7]: < 50%
CC1(C)[C@H](C=C(C(F)(F)F)C(F)(F)F)[C@H]1C(=O)OCc1ccc(F)c(Cc2ccccc2)c1 (relative stereo) [IX]	< 50	80 to 100	80 to 100	80 to 100	80 to 100	80 to 100	80 to 100	80 to 100	–
CC1(C)[C@H](/C=C(\Cl)C(F)(F)F)[C@@H]1C(=O)OCc1ccc(F)c(Cc2ccccc2)c1 (relative stereo) [I]	80 to 100	80 to 100	80 to 100	80 to 100	80 to 100	80 to 100	80 to 100	80 to 100	–
CC(C)(C)c1ncc([C@@H]2[C@@H](C(=O)OCc3ccc(F)c(Cc4ccccc4)c3)C2(C)C)cn1 (relative stereo) [XI]	–	–	–	–	–	–	–	–	mortality at 500 ppm ([1]; in Phaseolus vulgaris): 80 to 100%; mortality at 500 ppm [2]: 80 to 100%; mortality at 500 ppm [3, 15]: 80 to 100%; mortality at 500 ppm [4]: 50 to 79%; mortality at 500 ppm ([5]; in Gossypium hirsutum): 80 to 100%; mortality at 500 ppm (Myzus persicae (aphids); in Brassica rapa): 80 to 100%; mortality at 500 ppm [6, 18]: 80 to 100%; mortality at 500 ppm [7, 19]: < 50%
CC(C)=CC1C(C(=O)OCc2ccc(F)c(Cc3ccccc3)c2)C1(C)C (centres unmarked) [VIII]	< 50	80 to 100	80 to 100	80 to 100	80 to 100	80 to 100	< 50	< 50	–
CC1(C)C(C(=O)OCc2ccc(F)c(Cc3ccccc3)c2)C1(C)C [VII]	< 50	–	80 to 100	80 to 100	80 to 100	–	–	–	mortality at 500 ppm [3, 15]: < 50%; mortality at 500 ppm [6, 18]: 80 to 100%; mortality at 500 ppm [7, 19]: 80 to 100%
CC1(C)[C@H](C(=O)OC(C#N)c2ccc(F)c(Cc3ccccc3)c2)[C@@H]1/C=C(\Cl)C(F)(F)F (some centres unmarked) [VI]	–	–	–	–	–	–	–	–	mortality at 100 ppm [8]: 80 to 100%; mortality at 100 ppm [1, 9]: < 50%; mortality at 100 ppm [2, 10]: 80 to 100%; mortality at 100 ppm ([3]; in Gossypium hirsutum): 80 to 100%; mortality at 100 ppm [4, 11]: 80 to 100%; mortality at 100 ppm ([5]; cotton leaf, residual, 3 days): 80 to 100%; mortality at 100 ppm (Myzus persicae (aphids); [12]): 80 to 100%; mortality at 100 ppm ([6]; in Zea mays): 80 to 100%; mortality at 100 ppm [7]: 80 to 100%
CC1(C)[C@H](C(=O)OCc2ccc(F)c(Cc3ccccc3)c2)[C@@H]1/C=C(\Cl)C(F)(F)F [V]	80 to 100	80 to 100	80 to 100	80 to 100	80 to 100	80 to 100	–	80 to 100	mortality at 500 ppm [8]: 80 to 100%
CC(OC(=O)C1C(C=C(Cl)C(F)(F)F)C1(C)C)c1ccc(F)c(Cc2ccccc2)c1 (centres unmarked) [XIII]	–	80 to 100	80 to 100	80 to 100	80 to 100	80 to 100	80 to 100	80 to 100	mortality at 500 ppm [8]: 80 to 100%
CC(C)(C)c1ncc(C2C(C(=O)OC(C#N)c3ccc(F)c(Cc4ccccc4)c3)C2(C)C)cn1 (centres unmarked) [XII]	–	–	–	–	–	–	–	–	mortality at 500 ppm ([1]; in Phaseolus vulgaris): 50 to 79%; mortality at 500 ppm [2]: 80 to 100%; mortality at 500 ppm [3, 15]: < 50%; mortality at 500 ppm [4]: < 50%; mortality at 500 ppm ([5]; in Gossypium hirsutum): < 50%; mortality at 500 ppm (Myzus persicae (aphids); in Brassica rapa): 50 to 79%; mortality at 500 ppm [6, 18]: 80 to 100%; mortality at 500 ppm [7, 19]: < 50%

From patent US4902814A, “Fluorobenzyl esters” (Imperial Chemical Industries PLC, priority 1986, dated 1990)
